Results from patent US5310728A, “Method for treating corneal endothelial wounds” (Chiron Ophthalmics, Inc., priority 1992, dated 1994).
“Also recorded” adds a separate entry of the source.

Columns and labels:
fibroblasts = conditions: in vitro; Haigler & Carpenter 1980; cited from earlier work
[1] = system: bovine corneal endothelial cells (BCEC); test: Stimulation of BCEC DNA synthesis by recombinant peptide growth factors (tritiated thymidine); format: cell-based; conditions: for Relative potency as mitogen for BCEC (in words): absence of other added serum components, ten peptide growth factors compared, EGF first, TGF-α second; for Stimulation of DNA synthesis of BCEC (in words): serum-free CDM, FIG. 5
Description: Pure cultures of BCEC were established from freshly obtained cow eyes by trypsin treatment of the endothelial surface. Early passage cultures were trypsinized and seeded into 24 well plates as described above. After the cells had been synchronized by serum deprivation, BCEC were cultured in CDM containing tritiated thymidine and solutions of peptide growth factors produced by recombinant DNA technology. Radioactivity incorporated into DNA was measured as described previously.

[2] = system: endothelial cell division; test: Intraocular injection of TGF-α solution in a patient with endothelium failure; format: in vivo; conditions: 100 μg/ml in buffered saline, 0.1 ml per injection into the anterior chamber, single or series
Description: A patient is diagnosed as requiring a corneal implant due to endothelium failure as a result of such conditions as Fuch's dystrophy or a marginal endothelial count either prior to or after cataract surgery. As an alternative to transplant surgery, the patient undergoes a single or series of intraocular injections of a solution of TGF-α in buffered saline. The concentration of the TFG-α is 100 μg/ml and 0.1 ml of solution are injected into the anterior chamber per injection.

| Substance | Minimum exposure time to induce fibroblasts to divide (fibroblasts) | Relative potency as mitogen for BCEC (in words) [1] | Stimulation of DNA synthesis of BCEC (in words) [1] | Effect of injections on endothelial cell division [2] |
| --- | --- | --- | --- | --- |
| epidermal growth factor [EGF] | ≥ 6 h | second only to EGF in potency |  |  |
| multiplication stimulating activity |  |  | failed to stimulate DNA synthesis |  |
| nerve growth factor |  |  | failed to stimulate DNA synthesis |  |
| platelet-derived growth factor |  |  | failed to stimulate DNA synthesis |  |
| transforming growth factor alpha [TGF-α] |  | very potent mitogen for BCEC; also recorded: potent mitogen |  | enhance endothelial cell division |
